Drawing on ChEMBL document CHEMBL5370554, “Discovery of a first-in-class Aurora A covalent inhibitor for the treatment of triple negative breast cancer” (Eur J Med Chem, 2023), this text covers inhibition, Activity and inhibition in vivo for one compound.

Calls of active or inactive are those of the source. The rule behind the calls is not given here.

One data set concerns Mus musculus. The experiment in a line: In vivo inhibition of Aurora signalling pathway in human MDA-MB-231 cells xenografted in BALB/c nude mouse assessed as decrease in Aurora A phosphorylation at Thr288 residue in tumor at 15 mg/kg,ip every 2days for 20 days by Western blot analysis. It is filed as functional, organism-based. As to conditions: time 20.0 day.
For data set [1], the system named is MDA-MB-231. The experiment in a line: Induction of apoptosis in human MDA-MB-231 cells assessed as early apoptotic cells at 1.25 uM incubated for 24 hrs by Annexin V-FITC staining based flow cytometry (Rvb= 3.3%). It is filed as functional. (In flow cytometry, cells or beads pass a laser one at a time.)
Data set [2] has as its system MDA-MB-231. The experiment in a line: Antitumor activity against human MDA-MB-231 cells xenografted in BALB/c nude mouse assessed as tumor growth inhibition at 15 mg/kg,ip every 2days for 20 days. It is filed as functional. As to conditions: MDA-MB-231, 480 h, time 20 day, read-out: TGI.
Data set [3] relates to MDA-MB-231. The experiment in a line: Induction of apoptosis in human MDA-MB-231 cells assessed as live cells at 5 uM incubated for 24 hrs by Annexin V-FITC staining based flow cytometry (Rvb= 88.1%). It is filed as functional.
A short description of data set [4]: Toxicity in BALB/c nude mouse xenografted with human MDA-MB-231 cells assessed as inflammatory cell infiltration in kidney at 15 mg/kg,ip every 2days for 20 days by Hematoxylin and Eosin staining based microscopy. As to conditions: in vivo, 480 h, time 20 day. Type of data set: organism-based. On the technique in general: In xenograft studies the graft and the host belong to different species.

On to `C=CC(=O)Nc1ccc(-c2nc(Nc3cc(C)[nH]n3)c3ccc(N4CCN(C)CC4)cc3n2)cc1`, for which the inhibition result with Mus musculus is “Active”. Further, the Activity in the data set with MDA-MB-231 [1] is recorded as 10.5%; in the data set with MDA-MB-231 [3], 8.59%; in data set [4] it was “Non-Toxic”. In the data set on MDA-MB-231 [2], the inhibition in vivo at 15 mg/kg turned out to be 32.3%.
